# Measured values taken from US4298375A, “2-Substituted-5-phenyl-4-thiazolecarboxylic acids and their derivatives as safening agents” (Monsanto Company, priority 1979, dated 1981).
# How the values were obtained:
# Format in all cases: in vivo
# [1] = tested on: sorghum; test: Example 6: herbicidal effect on sorghum of alachlor with or without safening agent, soil treated with mixture, approximately 21 days; details: for safening when tested in accordance with the procedure of Example 6: alachlor
# Procedure: (§1) A good grade of top soil was placed in a plastic pot and compacted to a depth of approximately 1.27 cm. from the top of said pot. A predetermined number of sorghum seeds and weed seeds were placed on top of the soil. A cover layer, approximately 1.27 cm., was placed on top of said seeds. The soil was then treated with a mixture of the safening agent and alachlor dispersed or dissolved in a suitable solvent. For each test series, pots were treated with only the herbicide. Additionally, pots were treated with only the safening agent. The herbicidal effect was observed approximately 21 days after treatment. Table IV summarizes the results obtained when the compounds of the invention were tested in accordance with the procedure of Example 6. Note that in each test a control is used in which the sorghum plants are treated with various rates of alachlor herbicide alone.
# [2] = tested on: Green Foxtail; test: Example 6: herbicidal effect on weed (Green Foxtail) of alachlor with or without safening agent, soil treated with mixture, approximately 21 days
# Procedure: as §1
# [3] = tested on: sorghum; test: Example 5: safening against triallate, alachlor or butachlor, safener and herbicide incorporated in soil, greenhouse, approximately 21 days; parameters: key: (herbicide alone + safener alone, capped at 100) minus combination effect; details: safening agent 8.96 kg/h
# Procedure: A good grade of top soil is placed in a container and compacted to a depth of approximately 1.27 cm. from the top of said container. A predetermined number of sorghum seeds to be tested are placed on top of the soil. A quantity of soil sufficient to substantially fill the container is measured and placed in a second container. A measured quantity of the safening agent dispersed or dissolved in a suitable carrier is applied to the soil in the second container. A measured quantity of triallate, alachlor or butachlor herbicide dispersed or dissolved in a suitable carrier is then sprayed on the soil already treated with the safening agent. The soil containing the safening agent and the herbicide is thoroughly mixed. This mixing is sometimes referred to as incorporation of the herbicide and safening agent into the soil. The mixing or incorporation provides a substantially uniform distribution of the safening agent and herbicide throughout the soil. The sorghum seeds are covered with the soil containing the safening agent and herbicide and the pans are leveled. The pans are then placed on a sand bench in the greenhouse and watered from below as needed. The sorghum plants are observed at the end of approximately 21 days and the results in terms of percent inhibition of each seed lot are recorded. For each test series a pan of plants is also prepared containing no herbicide and no safening agent as a control. Additionally, for each test, a pan of plants is prepared with soil covering the seed containing no herbicide and only the measured amount of safening agent being incorporated into the soil covering the seeds to ascertain any herbicidal effect of the safening agent alone. For each series of tests the herbicidal effect of the herbicide is observed from pans of sorghum plants tested with the same quantity of herbicide alone. The "safening effect" is determined by adding the herbicidal effect of the herbicide when applied alone to the herbicidal effect of the safening agent when applied alone (in no instance, however, will this sum be greater than 100) and subtracting from that the herbicidal effect obtained when the herbicide and safening agent are incorporated into the soil as discussed above.
# [4] = alachlor alone 0.56 kg/h, no safening agent, first test
# [5] = alachlor alone 0.56 kg/h, no safening agent, second test
# [6] = alachlor alone 1.12 kg/h, no safening agent, first test
# [7] = alachlor alone 1.12 kg/h, no safening agent, second test
# [8] = alachlor alone 2.24 kg/h, no safening agent, first test
# [9] = alachlor alone 2.24 kg/h, no safening agent, second test
# [10] = alachlor alone 4.48 kg/h, no safening agent, first test
# [11] = alachlor alone 4.48 kg/h, no safening agent, second test
# [12] = alachlor 2.24 kg/h, (herbicide alone + safener alone) minus combination
# [13] = butachlor 6.72 kg/h, (herbicide alone + safener alone) minus combination
# [14] = triallate 0.56 kg/h, (herbicide alone + safener alone) minus combination
# [15] = safening agent 8.96 kg/h + alachlor 0.56 kg/h
# [16] = safening agent 8.96 kg/h + alachlor 1.12 kg/h
# [17] = safening agent 8.96 kg/h + alachlor 2.24 kg/h
# [18] = safening agent 8.96 kg/h + alachlor 4.48 kg/h
# [19] = safening agent 8.96 kg/h alone, alachlor 0.00 kg/h
# [20] = safening agent 9.96 kg/h (so in the source) + alachlor, rate not printed on this line (line below 4.48 kg/h)
# [21] = butachlor 6.72 kg/h, value given as symbol *
smiles,measurement,setting,value
"CCc1cccc(CC)c1N(COC)C(=O)CCl [Alachlor, 2-chloro-2',6'-diethyl-N-(methoxymethyl)acetanilide, reference compound]",% Inhibition Sorghum,[1]; [4],80%
same,% Inhibition Sorghum,[1]; [5],80%
same,% Inhibition Sorghum,[1]; [6],85%
same,% Inhibition Sorghum,[1]; [7],85%
same,% Inhibition Sorghum,[1]; [8],90%
same,% Inhibition Sorghum,[1]; [9],85%
same,% Inhibition Sorghum,[1]; [10],95%
same,% Inhibition Sorghum,[1]; [11],100%
same,% Inhibition Green Foxtail,[2]; [4],98%
same,% Inhibition Green Foxtail,[2]; [5],98%
same,% Inhibition Green Foxtail,[2]; [6],99%
same,% Inhibition Green Foxtail,[2]; [7],98%
same,% Inhibition Green Foxtail,[2]; [8],100%
same,% Inhibition Green Foxtail,[2]; [9],98%
same,% Inhibition Green Foxtail,[2]; [10],100%
same,% Inhibition Green Foxtail,[2]; [11],100%
"COC(=O)c1nc(N)sc1-c1ccccc1 [Example 1, Methyl 2-Amino-5-Phenyl-4-Thiazolecarboxylate]",safening when tested in accordance with the procedure of Example 6,[1],no significant safenin
same,Safening Effect,[3]; [12],24
same,Safening Effect,[3]; [13],35
same,Safening Effect,[3]; [14],56
"COC(=O)c1nc(Cl)sc1-c1ccccc1 [Example 2, Methyl 2-Chloro-5-Phenyl-4-Thiazolecarboxylate]",% Inhibition Sorghum,[1]; [15],30%
same,% Inhibition Sorghum,[1]; [16],65%
same,% Inhibition Sorghum,[1]; [17],70%
same,% Inhibition Sorghum,[1]; [18],70%
same,% Inhibition Sorghum,[1]; [19],0%
same,Safening Effect,[3]; [12],20
same,Safening Effect,[3]; [13],40
same,Safening Effect,[3]; [14],45
same,% Inhibition Green Foxtail,[2]; [15],100%
same,% Inhibition Green Foxtail,[2]; [16],100%
same,% Inhibition Green Foxtail,[2]; [17],100%
same,% Inhibition Green Foxtail,[2]; [18],100%
same,% Inhibition Green Foxtail,[2]; [19],0%
"COC(=O)c1nc(OC)sc1-c1ccccc1 [Example 3, Methyl 2-Methoxy-5-Phenyl-4-Thiazolecarboxylate]",% Inhibition Sorghum,[1]; [15],50%
same,% Inhibition Sorghum,[1]; [16],65%
same,% Inhibition Sorghum,[1]; [18],40%
same,% Inhibition Sorghum,[1]; [19],0%
same,% Inhibition Sorghum,[1]; [20],75%
same,Safening Effect,[3]; [12],23
same,Safening Effect,[3]; [21],* (Observed safening effect was less than 19.)
same,Safening Effect,[3]; [14],37
same,% Inhibition Green Foxtail,[2]; [15],100%
same,% Inhibition Green Foxtail,[2]; [16],100%
same,% Inhibition Green Foxtail,[2]; [18],100%
same,% Inhibition Green Foxtail,[2]; [19],0%
same,% Inhibition Green Foxtail,[2]; [20],100%
"COC(=O)c1nc(Sc2ccccc2)sc1-c1ccccc1 [Example 4, Methyl 5-Phenyl-2-Phenylthio-4-Thiazolecarboxylate]",safening when tested in accordance with the procedure of Example 6,[1],no significant safenin
same,Safening Effect,[3]; [12],20
same,Safening Effect,[3]; [21],* (Observed safening effect was less than 19.)
same,Safening Effect,[3]; [14],35
